Measurements from paper PMC6630832, “3-Vinylazetidin-2-Ones: Synthesis, Antiproliferative and Tubulin Destabilizing Activity in MCF-7 and MDA-MB-231 Breast Cancer Cells” (Pharmaceuticals, 2019).
Read-outs that look alike come from different tables or passages of the source.

How the values were obtained:
[1] = tested on: human MDA-MB-231 breast cancer cells; assay: Cell viability (Alamar Blue) antiproliferative assay in MDA-MB-231 cells; type: cell-based; conditions: mean ± SEM
Procedure: The human breast carcinoma cell line MCF-7, was purchased from the European Collection of Animal Cell Cultures (ECACC) and was cultured in Eagle’s minimum essential medium with 10% fetal bovine serum, 2 mM L-glutamine and 100 μg/mL penicillin/streptomycin. The medium was supplemented with 1% non-essential amino acids. The human breast carcinoma cell line MDA-MB-231 was purchased from the European Collection of Animal Cell Cultures (ECACC). MDA-MB-231 cells were maintained in Dulbecco’s modified Eagle’s medium (DMEM) supplemeted with 10% (v/v) fetal bovine serum, 2 mM L-glutamine and 100 μg/mL penicillin/streptomycin (complete medium). All media contained 100 U/mL penicillin and 100 μg/mL streptomycin. Triple negative breast cancer Hs578T cells and its invasive variant Hs578Ts(i)8 were obtained as a kind gift from Dr. Susan McDonnell, School of Chemical and Bioprocess Engineering, University College Dublin and were cultured in Dulbecco’s Modified Eagle’s Media (DMEM) with GlutaMAX^TM-I, with the same supplement as for MDA-MB-231 cells in the absence of non-essential amino acids. HEK-293T normal epithelial embryonic kidney cells were cultured in Dulbecco’s Modified Eagle’s Medium (DMEM) with GlutaMAX^TM-I in the absence of non-essential amino acids. K562 and HL-60 cells were originally obtained from the European Collection of Cell Cultures (Salisbury, UK).The K562 cells were derived from a patient in the blast crisis stage of CML HL-60 cells were derive from a patient with acute myeloid leukaemia. Cells were cultured in RPMI-1640 Glutamax medium supplemented with 10% FCS media, and 100 μg/mL penicillin/streptomycin. Cells were maintained at 37 °C in 5% CO2 in a humidified incubator. All cells were sub-cultured three times/week (adherent cells by trypsinisation).
Cells were seeded at a density of 5 × 10^3 cells/well (MCF-7), in triplicate in 96-well plates. After 24 h, cells were then treated with either medium alone, vehicle [1% ethanol (v/v)] or with serial dilutions of CA-4 or β-lactam analogue. Cell viability for MCF-7 and MDA-MB-231 was analysed using the Alamar Blue assay (Invitrogen Corp, Thermo Fisher Scientific, 168 Third Avenue, Waltham, MA, USA) according to the manufacturer’s instructions. After 72 h, Alamar Blue [10% (v/v)] was added to each well and plates were incubated for 3–5 h at 37 °C in the dark. Fluorescence was read using a 96-well fluorimeter with excitation at 530 nm and emission at 590 nm. Results were expressed as percentage viability relative to vehicle control (100%). Dose response curves were plotted and IC50 values (concentration of drug resulting in 50% reduction in cell survival) were obtained using the commercial software package Prism (GraphPad Software, Inc., 2365 Northside, Suite 560, San Diego, CA, USA). Experiments were performed in triplicate on at least three separate occasions.

UACC-257 = assay: NCI60 screen (SRB), Melanoma; type: cell-based; conditions: Homo sapiens
HS 578T = assay: NCI60 screen (SRB), Breast cancer; type: cell-based; conditions: Homo sapiens
MCF-7 = assay: NCI60 screen (SRB), Breast cancer; type: cell-based; conditions: Homo sapiens, MCF7
PC-3 = assay: NCI60 screen (SRB), Prostate cancer; type: cell-based; conditions: Homo sapiens
[2] = HPLC stability study in phosphate buffers; type: physicochemical; conditions: phosphate buffer, read-out: half-life (t½)
Procedure: Analytical high-performance liquid chromatography (HPLC) stability studies were performed using a Symmetry® column (C18, 5 µm, 4.6 × 150 mm), a Waters 2487 Dual Wavelength Absorbance detector, a Waters 1525 binary HPLC pump and a Waters 717 plus Autosampler (Waters Corporation, 34 Maple St, Milford, MA, USA). Samples were detected at wavelength of 254 nm. All samples were analysed using acetonitrile (80%) and water (20%) as the mobile phase over 10 min and a flow rate of 1 mL/min. Stock solutions were prepared by dissolving 5 mg of compound 7s, 17b and 17c in 10 mL of mobile phase. Phosphate buffers at the desired pH values (4, 7.4 and 9) were prepared in accordance with the British Pharmacopoeia monograph 2015. 30 µL of stock solution was diluted with 1 mL of appropriate buffer, shaken and injected immediately. Samples were withdrawn and analysed at time intervals of t = 0 min, 5 min, 30 min, 60 min, 90 min, 120 min, 24 h and 48 h. Plasma stability studies: 360 µL stock solution of compounds 7s, 17b and 17c were transferred to buffered plasma (plasma: buffer = 1:9, 4 mL in total) at 37 °C in screw cap container. Immediately a 250 µL aliquot was withdrawn and added to the Eppendorf tube containing 500 µL ZnSO4.7H2O solution (2% w/v ZnSO4 solution in acetonitrile: water, 1:1). The samples were then centrifuged at 10,000 rpm for 3 min and filtered through a 0.2-micron filter and injected according to the HPLC conditions listed above. Further samples were taken in the same manner every 1 h thereafter up to 6 h. A final sample was taken after 24 h. Whole blood stability studies. A 360 µL aliquot of stock solution of compounds 17b and 17c in acetonitrile was added in whole blood (4 mL, treated with 2% sodium citrate) at 37 °C and 300 µL aliquots were withdrawn at approptiate intervals. Samples were transferred to 1.5 mL Eppenddorf tubes containing 1 mL of ZnSO4. 7H2O solution (2% w/v ZnSO4 solution in acetonitrile: water, 1:1), vortexed and then centrifuged for 5 min at 14,000 rpm. The sample filtered through a 0.2-micron filter and injected according to the HPLC conditions listed above.

SF-268 = assay: NCI60 screen (SRB), CNS Cancer; type: cell-based; conditions: Homo sapiens
HCT-116 = assay: NCI60 screen (SRB), Colon Cancer; type: cell-based; conditions: Homo sapiens
HL-60(TB) = assay: NCI60 screen (SRB), Leukemia; type: cell-based; conditions: Homo sapiens; NCI60 Leukemia cell line HL-60(TB)
SR = assay: NCI60 screen (SRB), Leukemia; type: cell-based; conditions: Homo sapiens
CCRF-CEM = assay: NCI60 screen (SRB), Leukemia; type: cell-based; conditions: Homo sapiens
OVCAR-8 = assay: NCI60 screen (SRB), Ovarian cancer; type: cell-based; conditions: Homo sapiens
[3] = NCI60 Melanoma cell line UACC-257, read-out: GI50
[4] = NCI60 Breast cancer cell line HS 578T, read-out: GI50
[5] = NCI result in MCF-7 cells, read-out: GI50
[6] = NCI60 Prostate cancer cell line PC-3, read-out: GI50
[7] = NCI60 CNS Cancer cell line SF-268, read-out: GI50
[8] = NCI60 Colon Cancer cell line HCT-116, read-out: GI50
[9] = NCI60 Leukemia cell line SR, read-out: GI50
[10] = NCI60 Leukemia cell line CCRF-CEM, read-out: GI50
[11] = NCI60 Ovarian cancer cell line OVCAR-8, read-out: GI50

Row | SMILES | IC50 [1] | GI50 (UACC-257; [3]) | GI50 (HS 578T; [4]) | GI50 (MCF-7; [5]) | GI50 (PC-3; [6]) | half-life at 14.6 µg/mL ([2]; pH 4) | half-life at 14.6 µg/mL ([2]; pH 7.4) | half-life at 14.6 µg/mL ([2]; pH 9) | GI50 (SF-268; [7]) | GI50 (HCT-116; [8]) | GI50 (HL-60(TB)) | GI50 (SR; [9]) | GI50 (CCRF-CEM; [10]) | GI50 (OVCAR-8; [11]) | GI50 (UACC-257; UACC-257) | GI50 (HS 578T; Hs-578T) | GI50 (MCF-7) | GI50 (PC-3; PC-3) | GI50 (SF-268; SF-268) | GI50 (HCT-116; HCT-116) | also measured
1 | COc1ccc(/C=C\c2cc(OC)c(OC)c(OC)c2)cc1O [CA-4, Combretastatin A-4, reference compound] | 43 nM | – | – | – | – | – | – | – | – | – | – | – | – | – | – | – | – | – | – | – | –
2 | C=CC1C(=O)N(c2cc(OC)c(OC)c(OC)c2)C1c1ccc(OC)c(O)c1 (stereo not drawn) [Compound 7s, 4-[3-Hydroxy-4-methoxyphenyl]-1-(3,4,5-trimethoxyphenyl)-3-vinylazetidin-2-one] | – | > 100000 nM | < 10 nM | < 10 nM | < 10 nM | > 24 h | > 24 h | > 24 h | < 10 nM | < 10 nM | – | – | – | – | – | – | – | – | – | – | –
3 | CCC1C(=O)N(c2cc(OC)c(OC)c(OC)c2)C1c1ccc(OC)c(OP(=O)(O)O)c1 (stereo not drawn) [Compound 17c, 5-(3-Ethyl-1-(3,4,5-trimethoxyphenyl)-4-oxoazetidin-2-yl)-2-methoxyphenyl dihydrogen phosphate] | 44 ± 7 nM | > 100000 nM | 37.1 nM | 25.1 nM | 34.9 nM | > 24 h | > 24 h | > 24 h | 43.3 nM | 35 nM | 28.8 nM | 33.5 nM | 32.5 nM | 32.7 nM | – | – | – | – | – | – | –
4 | C=CC1C(=O)N(c2cc(OC)c(OC)c(OC)c2)C1c1ccc(OC)c(OP(=O)(O)O)c1 (stereo not drawn) [Compound 17b, 2-Methoxy-5-(1-(3,4,5-trimethoxyphenyl)-4-oxo-3-vinylazetidin-2-yl)phenyl dihydrogen phosphate] | – | > 100000 nM | 53.1 nM | 39.4 nM | 53.6 nM | > 24 h | > 24 h | > 24 h | 88.4 nM | 43.9 nM | 27.3 nM | 57.2 nM | 60.4 nM | 44.2 nM | – | – | – | – | – | – | –
5 | C=CC1C(=O)N(c2cc(OC)c(OC)c(OC)c2)C1c1ccc(OC)c(N)c1 (stereo not drawn) [Compound 7t, 4-(3-Amino-4-methoxyphenyl)-1-(3,4,5-trimethoxyphenyl)-3-vinylazetidin-2-one] | 30 ± 2 nM | – | – | – | – | – | – | – | – | – | 13.7 nM | – | – | – | > 100000 nM | 39.8 nM | < 10 nM | 41.5 nM | 54.6 nM | 27.6 nM | GI50 (SR; SR): 43.9 nM; GI50 (CCRF-CEM; CCRF-CEM): 32.6 nM; GI50 (OVCAR-8; OVCAR-8): 14.8 nM
6 | C=CC1C(=O)N(c2cc(OC)c(OC)c(OC)c2)C1c1ccc(OC)cc1 (stereo not drawn) [Compound 7h, 4-(4-Methoxyphenyl)-1-(3,4,5-trimethoxyphenyl)-3-vinylazetidin-2-one] | – | – | – | – | – | – | – | – | – | – | – | – | – | – | 42200 nM | 72.7 nM | 30.6 nM | 37.4 nM | 47.6 nM | 30.7 nM | –
